Experimental data published in patent US6617343B1, “Hypoglycemic N,N-arylsulfonylglycine compounds” (Eli Lilly and Company, priority 1999, dated 2003).

How the values were obtained:
[1] = system: Male obese-diabetic viable yellow (AvY) mice; experiment: Hypoglycemic efficacy: blood glucose in obese-diabetic viable yellow mice fed compound admixed in chow; format: in vivo; conditions: dose .03 weight percent in diet; for % BG14 (BG0 = 100): blood glucose at day 14 as percent of initial value
Procedure: Male obese-diabetic viable yellow (AvY) mice were divided into two groups of 6 each. One group was fed repelletized purina 5008 Chow and the second group was fed repelletized Purina 5008 Chow, admixed with varying doses of the candidate compound. Blood samples were taken before the experiment was initiated and 7 and 14 days after initiation. Body weight and food consumption were monitored. The blood glucose level after 7 or 14 days of treatment was measured and recorded as a percent of the initial value, compared to the untreated control (first) group. The results are presented in the table 1 below; and include the dose of the candidate compound as a weight percent of the amount incorporated into the diet. Also in the table is a representative value for a positive control (a known hypoglycemic agent reported by a Takeda group [J. Med. Chem., 35, 2617]) administered in the same way as a canditate compound of the present invention.
BG means blood glucose level; BG0 means blood glucose level at day zero and BG14 means blood glucose level at day 14 accordingly.

CC(C)S(=O)(=O)N(CC(=O)O)c1ccc(OCCc2coc(-c3ccccc3)n2)cc1 [Example 1, N-[4-(2-(Phenyloxazol-4yl)ethoxyl]phenyl)-N-isopropyl Sulfonylglycine]
melting point: 136 to 139 °C
% BG14 (BG0 = 100) [1]: 53.1%

CS(=O)(=O)N(CC(=O)O)c1ccc(OCCc2coc(-c3ccccc3)n2)cc1 [Example 2, N-4[-(2-(Phenyloxazol-4yl)ethoxy)phenyl]-N-methylsufonyl-glycine]
melting point: 200 to 201 °C
% BG14 (BG0 = 100) [1]: 76.4%

CS(=O)(=O)N(CC(=O)[O-])c1ccc(OCCc2coc(-c3ccccc3)n2)cc1.[Na+] [Example 3, Sodium N-(4-(2-Phenyl-4-oxazolylethoxy)phenyl)-N-methylsulfonylglycinate]
% BG14 (BG0 = 100) [1]: 57.9%

CN(C)S(=O)(=O)N(CC(=O)O)c1ccc(OCCc2coc(-c3ccccc3)n2)cc1 [Example 4, N-[4-(2-(Phenyloxazol-4yl)ethoxy)phenyl]-N-N′N′-dimethyl aminosulfonylglycine]
melting point: 154 to 156 °C
% BG14 (BG0 = 100) [1]: 70.1%

O=C(O)CN(c1ccc(OCCc2coc(-c3ccccc3)n2)cc1)S(=O)(=O)Cc1ccccc1 [Example 5, N-[4-(2-(phenyloxazol-4yl)ethoxy)phenyl]-N-phenylmethyl sulfonylglycine]
melting point: 147 to 149 °C
% BG14 (BG0 = 100) [1]: 77.0%

CS(=O)(=O)N(CC(=O)O)c1ccc2oc(Cc3ccc4ccccc4c3)cc2c1 [Example 6, N-[5-(-2-(2-naphthylmethyl)benzofuranyl)]-N-methylsulfonylglycine]
melting point: 160 to 165 °C (dec.)
% BG14 (BG0 = 100), (day 7) ([1]; blood glucose at day 7 as percent of initial value): 93.1 (day 7) %
